In US20230240994A1, “MEDICAMENT-CONTAINING HOLLOW PARTICLE” (Sumitomo Pharma Co., Ltd., priority 2012, published 2023):
Structures can show the parent of a compound that is named as a salt.

test: Particle size distribution by laser diffraction particle size analyzer (volume basis); format: physicochemical; details: medicament used (raw material), laser diffraction SALD-3000J
Procedure: In the present invention, the “average particle size” means cumulative 50% particle size D50 in the volume based measurement of powder particles. Such average particle size is measured by a laser diffraction particle size analyzer (e.g., Particle Viewer manufactured by POWREX CORPORATION, or SALD-3000J manufactured by Shimadzu Corporation, or HELOS&RODOS manufactured by Sympatec GmbH) by volume basis.
The particle size distribution of medicament, polymer, other additive, a mixed powder of the medicament and other additive, and the obtained medicament-containing particle was measured by a laser diffraction particle size analyzer (manufactured by POWREX CORPORATION, Particle Viewer) or laser diffraction particle size analyzer (manufactured by Shimadzu Corporation, SAID-3000J) by volume basis.

With `NS(=O)(=O)Cc1noc2ccccc12` [Compound A (D50: 9.9 μm)] the “particle size distribution D10” value was 1.2 μm.
With `NS(=O)(=O)Cc1noc2ccccc12` [Compound A (D50: 6.9 μm)] the “particle size distribution D10” value was 1.0 μm.
In the case of `NS(=O)(=O)Cc1noc2ccccc12` [Compound A, 1,2-benzisoxazole-3-methanesulfonamide, reference compound], the “particle size distribution D10” value was 0.7 μm.
For `NS(=O)(=O)Cc1noc2ccccc12` [Compound A (D50: 2.7 μm)], the “particle size distribution D10” value was 0.7 μm.

In the case of `NS(=O)(=O)Cc1noc2ccccc12` [Compound A (D50: 9.9 μm)], the “particle size distribution D50” value was 9.9 μm.
With `NS(=O)(=O)Cc1noc2ccccc12` [Compound A (D50: 6.9 μm)] the “particle size distribution D50” value was 6.9 μm.
For `NS(=O)(=O)Cc1noc2ccccc12` [Compound A, 1,2-benzisoxazole-3-methanesulfonamide, reference compound], the “particle size distribution D50” value was 2.7 μm.
With `NS(=O)(=O)Cc1noc2ccccc12` [Compound A (D50: 2.7 μm)] the “particle size distribution D50” value was 2.7 μm.

For `NS(=O)(=O)Cc1noc2ccccc12` [Compound A (D50: 9.9 μm)], the “particle size distribution D90” value was 42.9 μm.
In the case of `NS(=O)(=O)Cc1noc2ccccc12` [Compound A (D50: 6.9 μm)], the “particle size distribution D90” value was 26.8 μm.
With `NS(=O)(=O)Cc1noc2ccccc12` [Compound A, 1,2-benzisoxazole-3-methanesulfonamide, reference compound] the “particle size distribution D90” value was 5.6 μm.
For `NS(=O)(=O)Cc1noc2ccccc12` [Compound A (D50: 2.7 μm)], the “particle size distribution D90” value was 5.6 μm.

same assay, conditions: micronized product of Compound A used in Comparative Example 3-2

With `NS(=O)(=O)Cc1noc2ccccc12` [Compound A, 1,2-benzisoxazole-3-methanesulfonamide, reference compound] the “particle size distribution D10” value was 3.2 μm.

In the case of `NS(=O)(=O)Cc1noc2ccccc12` [Compound A, 1,2-benzisoxazole-3-methanesulfonamide, reference compound], the “particle size distribution D50” value was 13.3 μm.

With `NS(=O)(=O)Cc1noc2ccccc12` [Compound A, 1,2-benzisoxazole-3-methanesulfonamide, reference compound] the “particle size distribution D90” value was 40.8 μm.

same assay, conditions: starting material as used (medicament, polymer, other additive, mixed powder); volume basis

Compared with `C[C@@H](c1ccc(-c2ccccc2)c(F)c1)c1cc(N=C(N)N2CCOCC2)on1` [Compound E, 3-[(1S)-1-(2-fluorobiphenyl-4-yl)ethyl]-5-{[amino(morpholin-4-yl)methylene]amino}isoxazole], `CCOc1cc(N)c(Cl)cc1C(=O)NCC1CN(Cc2ccc(F)cc2)CCO1` (stereo not drawn) [mosapride citrate, reference compound] is higher in “particle size distribution D10” value: 1.3 μm for the first, 2.3 μm for the second.

Compared with `NS(=O)(=O)Cc1noc2ccccc12` [Compound A, 1,2-benzisoxazole-3-methanesulfonamide, reference compound], `Nc1ccc(O)c(C(=O)O)c1` [Compound D, 5-amino-2-hydroxybenzoic acid, reference compound] is higher in “particle size distribution D10” value: 0.7 μm for the first, 1.3 μm for the second.

First: CC(=O)Nc1ccc(O)cc1 [acetaminophen, reference compound]
Second: COc1ccc2c(c1)c(CC(=O)O)c(C)n2C(=O)c1ccc(Cl)cc1 [Compound G, 1-(4-chlorobenzoyl)-5-methoxy-2-methyl-1-H-indole-3-acetic acid, reference compound]
The “particle size distribution D10” value of the first is higher: 2.8 μm for the first, 0.8 μm for the second.

Going from `OC[C@@H](O)[C@@H](O)[C@H](O)[C@H](O)CO` [D-mannitol (JM pulverized product), D-mannitol] to `OC[C@H]1O[C@@H](O[C@H]2[C@H](O)[C@@H](O)C(O)O[C@@H]2CO)[C@H](O)[C@@H](O)[C@H]1O` (stereo partly drawn) [lactose (Pharmatose 200M), lactose], the “particle size distribution D10” value rises from 0.5 μm to 4.0 μm.

First: Cl.O=C1[C@@H]2[C@H]3CC[C@H](C3)[C@@H]2C(=O)N1C[C@@H]1CCCC[C@H]1CN1CCN(c2nsc3ccccc23)CC1 [Compound B, (3aR,4S,7R,7aS)-2-{(1R,2R)-2-[4-(1,2-benzisothiazol-3-yl)piperazin-1-ylmethyl]cyclohexylmethyl}hexahydro-4,7-methano-2H-isoindole-1,3-dione hydrochloride, reference compound]
Second: COc1cccc(-c2nccc3[nH]c(=O)c(-c4noc(C)n4)cc23)c1 [Compound F, 5-(3-methoxyphenyl)-3-(5-methyl-1,2,4-oxadiazol-3-yl)-2-oxo-1,2-dihydro-1,6-naphthyridine]
The “particle size distribution D10” value of the first is lower: 0.5 μm for the first, 0.6 μm for the second.

Going from `O=C([O-])[O-].[Mg+2]` [magnesium carbonate (light), magnesium carbonate] to `OC[C@@H](O)[C@@H](O)[C@H](O)[C@H](O)CO` [D-mannitol (PEARLITOL 50C), D-mannitol], the “particle size distribution D10” value rises from 0.9 μm to 6.9 μm.

First: C[C@@H](c1ccc(-c2ccccc2)c(F)c1)c1cc(N=C(N)N2CCOCC2)on1 [Compound E, 3-[(1S)-1-(2-fluorobiphenyl-4-yl)ethyl]-5-{[amino(morpholin-4-yl)methylene]amino}isoxazole]
Second: CCOc1cc(N)c(Cl)cc1C(=O)NCC1CN(Cc2ccc(F)cc2)CCO1 (stereo not drawn) [mosapride citrate, reference compound]
The “particle size distribution D50” value of the first is lower: 3.2 μm for the first, 9.2 μm for the second.

Going from `NS(=O)(=O)Cc1noc2ccccc12` [Compound A, 1,2-benzisoxazole-3-methanesulfonamide, reference compound] to `Nc1ccc(O)c(C(=O)O)c1` [Compound D, 5-amino-2-hydroxybenzoic acid, reference compound], the “particle size distribution D50” value rises from 2.7 μm to 4.6 μm.

Compared with `CC(=O)Nc1ccc(O)cc1` [acetaminophen, reference compound], `COc1ccc2c(c1)c(CC(=O)O)c(C)n2C(=O)c1ccc(Cl)cc1` [Compound G, 1-(4-chlorobenzoyl)-5-methoxy-2-methyl-1-H-indole-3-acetic acid, reference compound] is lower in “particle size distribution D50” value: 11.6 μm for the first, 3.1 μm for the second.

First: OC[C@@H](O)[C@@H](O)[C@H](O)[C@H](O)CO [D-mannitol (JM pulverized product), D-mannitol]
Second: OC[C@H]1O[C@@H](O[C@H]2[C@H](O)[C@@H](O)C(O)O[C@@H]2CO)[C@H](O)[C@@H](O)[C@H]1O (stereo partly drawn) [lactose (Pharmatose 200M), lactose]
The “particle size distribution D50” value of the first is lower: 2.0 μm for the first, 48.7 μm for the second.

Compared with `Cl.O=C1[C@@H]2[C@H]3CC[C@H](C3)[C@@H]2C(=O)N1C[C@@H]1CCCC[C@H]1CN1CCN(c2nsc3ccccc23)CC1` [Compound B, (3aR,4S,7R,7aS)-2-{(1R,2R)-2-[4-(1,2-benzisothiazol-3-yl)piperazin-1-ylmethyl]cyclohexylmethyl}hexahydro-4,7-methano-2H-isoindole-1,3-dione hydrochloride, reference compound], `COc1cccc(-c2nccc3[nH]c(=O)c(-c4noc(C)n4)cc23)c1` [Compound F, 5-(3-methoxyphenyl)-3-(5-methyl-1,2,4-oxadiazol-3-yl)-2-oxo-1,2-dihydro-1,6-naphthyridine] is higher in “particle size distribution D50” value: 1.5 μm for the first, 2.5 μm for the second.

Going from `O=C([O-])[O-].[Mg+2]` [magnesium carbonate (light), magnesium carbonate] to `OC[C@@H](O)[C@@H](O)[C@H](O)[C@H](O)CO` [D-mannitol (PEARLITOL 50C), D-mannitol], the “particle size distribution D50” value rises from 4.0 μm to 47.0 μm.

Going from `C[C@@H](c1ccc(-c2ccccc2)c(F)c1)c1cc(N=C(N)N2CCOCC2)on1` [Compound E, 3-[(1S)-1-(2-fluorobiphenyl-4-yl)ethyl]-5-{[amino(morpholin-4-yl)methylene]amino}isoxazole] to `CCOc1cc(N)c(Cl)cc1C(=O)NCC1CN(Cc2ccc(F)cc2)CCO1` (stereo not drawn) [mosapride citrate, reference compound], the “particle size distribution D90” value rises from 6.3 μm to 30.6 μm.

Compared with `NS(=O)(=O)Cc1noc2ccccc12` [Compound A, 1,2-benzisoxazole-3-methanesulfonamide, reference compound], `Nc1ccc(O)c(C(=O)O)c1` [Compound D, 5-amino-2-hydroxybenzoic acid, reference compound] is higher in “particle size distribution D90” value: 5.6 μm for the first, 12.7 μm for the second.

Going from `CC(=O)Nc1ccc(O)cc1` [acetaminophen, reference compound] to `COc1ccc2c(c1)c(CC(=O)O)c(C)n2C(=O)c1ccc(Cl)cc1` [Compound G, 1-(4-chlorobenzoyl)-5-methoxy-2-methyl-1-H-indole-3-acetic acid, reference compound], the “particle size distribution D90” value falls from 46.1 μm to 8.1 μm.

Compared with `OC[C@@H](O)[C@@H](O)[C@H](O)[C@H](O)CO` [D-mannitol (JM pulverized product), D-mannitol], `OC[C@H]1O[C@@H](O[C@H]2[C@H](O)[C@@H](O)C(O)O[C@@H]2CO)[C@H](O)[C@@H](O)[C@H]1O` (stereo partly drawn) [lactose (Pharmatose 200M), lactose] is higher in “particle size distribution D90” value: 4.2 μm for the first, 129.0 μm for the second.

Going from `Cl.O=C1[C@@H]2[C@H]3CC[C@H](C3)[C@@H]2C(=O)N1C[C@@H]1CCCC[C@H]1CN1CCN(c2nsc3ccccc23)CC1` [Compound B, (3aR,4S,7R,7aS)-2-{(1R,2R)-2-[4-(1,2-benzisothiazol-3-yl)piperazin-1-ylmethyl]cyclohexylmethyl}hexahydro-4,7-methano-2H-isoindole-1,3-dione hydrochloride, reference compound] to `COc1cccc(-c2nccc3[nH]c(=O)c(-c4noc(C)n4)cc23)c1` [Compound F, 5-(3-methoxyphenyl)-3-(5-methyl-1,2,4-oxadiazol-3-yl)-2-oxo-1,2-dihydro-1,6-naphthyridine], the “particle size distribution D90” value rises from 3.3 μm to 5.0 μm.

Compared with `O=C([O-])[O-].[Mg+2]` [magnesium carbonate (light), magnesium carbonate], `OC[C@@H](O)[C@@H](O)[C@H](O)[C@H](O)CO` [D-mannitol (PEARLITOL 50C), D-mannitol] is higher in “particle size distribution D90” value: 10.6 μm for the first, 125.2 μm for the second.
